Results taken from article PMC9298352, “Design, Synthesis and Structural Analysis of Glucocerebrosidase Imaging Agents” (Chemistry (Weinheim an Der Bergstrasse, Germany), 2021).

How the values were obtained:
[1] = target: T1, GBA in mouse brain lysate (Mus musculus, UniProt P17439); assay: Fluorescent labeling of mouse brain lysate, GBA; type: biochemical; conditions: 37 °C
T1 construct: from tissue; host or cells: mouse brain
T1 sequence (P17439 20-515): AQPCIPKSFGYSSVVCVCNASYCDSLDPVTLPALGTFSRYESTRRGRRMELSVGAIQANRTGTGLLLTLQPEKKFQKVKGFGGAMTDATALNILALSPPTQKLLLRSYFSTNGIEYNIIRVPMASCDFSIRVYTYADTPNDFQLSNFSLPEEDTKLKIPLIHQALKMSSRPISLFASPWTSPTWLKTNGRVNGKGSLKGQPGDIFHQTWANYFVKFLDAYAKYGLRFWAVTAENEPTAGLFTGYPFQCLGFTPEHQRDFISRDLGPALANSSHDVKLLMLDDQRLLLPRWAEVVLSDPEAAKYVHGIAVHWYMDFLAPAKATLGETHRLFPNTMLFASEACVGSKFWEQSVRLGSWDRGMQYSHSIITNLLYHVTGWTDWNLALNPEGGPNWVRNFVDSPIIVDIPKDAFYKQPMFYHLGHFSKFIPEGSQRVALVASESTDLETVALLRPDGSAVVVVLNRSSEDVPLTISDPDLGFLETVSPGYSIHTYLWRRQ
Procedure: We next investigated their labeling efficiency and selectivity toward GBA in mouse brain lysate at pH 5.2 (containing 0.2 % taurocholate and 0.1 % Triton‐100) and pH 5.8 as respective optimal conditions for GBA and GBA2 activities (Figure 7). […] Importantly, no labelling of GBA2 was observed up to 1000 nM, showing good GBA selectivity.
Labeling by broad‐spectrum β‐glucosidase ABP 8 is shown for comparison (100 nM, pH 5.2 or pH 5.8, 30 min, 37 °C).
Fluorescent labeling with broad‐spectrum ABP 8 was performed at 100 nM ABP concentration at 37 °C for 30 min at pH 5.2 (with 0.1 % (v/v) Triton X‐100 and 0.2 % (w/v) sodium taurocholate) or pH 5.8 respectively. Samples were then denatured with 4 μL Laemmli (5x) sample buffer and heated at 98 °C for 5 minutes. Proteins were resolved by electrophoresis in 10 % SDS‐PAGE gels, running at a constant of 90 V for 30 minutes followed by 120 V for approximately 60 minutes. Wet slab gels were scanned on fluorescence using a Typhoon FLA9500 Imager (GE Healthcare) using λEX 635 nm; λEM >665 nm and images were processed using ImageLab 5.2.1 (BioRad).

[2] = target: T2, overexpressed GBA2 in HEK293T cells (Homo sapiens, UniProt Q9HCG7); assay: In situ labeling of GBA2 in living HEK293T cells (gel-based ABPP); type: cell-based; conditions: HEK293T cells overexpressing GBA2, 1–1000 nM, 24 h, 37 °C
T2 construct: expressed in transfected cells; host or cells: HEK293T
T2 sequence (Q9HCG7 1-927): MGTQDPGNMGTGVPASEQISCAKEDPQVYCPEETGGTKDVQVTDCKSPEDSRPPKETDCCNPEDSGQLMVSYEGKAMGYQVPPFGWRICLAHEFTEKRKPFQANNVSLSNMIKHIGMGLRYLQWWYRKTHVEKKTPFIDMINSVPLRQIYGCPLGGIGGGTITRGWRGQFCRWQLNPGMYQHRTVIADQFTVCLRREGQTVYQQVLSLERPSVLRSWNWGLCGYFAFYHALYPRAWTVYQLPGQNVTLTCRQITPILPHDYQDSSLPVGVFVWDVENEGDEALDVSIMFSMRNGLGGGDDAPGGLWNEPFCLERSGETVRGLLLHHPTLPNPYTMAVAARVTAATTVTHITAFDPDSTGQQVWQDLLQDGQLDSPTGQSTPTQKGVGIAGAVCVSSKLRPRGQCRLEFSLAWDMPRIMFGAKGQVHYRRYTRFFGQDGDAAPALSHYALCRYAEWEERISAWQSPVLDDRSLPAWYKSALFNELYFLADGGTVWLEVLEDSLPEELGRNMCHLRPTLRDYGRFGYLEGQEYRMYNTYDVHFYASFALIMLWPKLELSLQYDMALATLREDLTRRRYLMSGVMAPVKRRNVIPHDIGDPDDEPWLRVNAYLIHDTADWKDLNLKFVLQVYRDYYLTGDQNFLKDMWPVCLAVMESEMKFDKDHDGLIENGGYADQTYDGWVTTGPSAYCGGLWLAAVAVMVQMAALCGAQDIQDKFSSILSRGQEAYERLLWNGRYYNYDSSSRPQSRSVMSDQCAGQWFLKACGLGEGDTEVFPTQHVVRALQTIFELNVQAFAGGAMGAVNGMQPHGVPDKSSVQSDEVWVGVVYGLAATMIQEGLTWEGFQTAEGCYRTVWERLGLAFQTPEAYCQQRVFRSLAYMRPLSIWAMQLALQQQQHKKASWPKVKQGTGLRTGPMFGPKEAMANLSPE
Procedure: HEK293T cells containing endogenous GBA and overexpressed GBA2 were treated with the ABPs at different concentrations (1–1000 nM) for 24 hr. Cells were then washed, lysed and the fluorescence was visualized by gel‐based ABPP (Figure 8).
CBB, Coomassie Brilliant Blue staining (bottom panel).
Labelling of HEK293T cells, containing endogenous GBA and overexpressed GBA2, with ABPs 6, 8 and 9 was conducted based on previously described methods[69] as outlined in the Supporting Information (page 7).
Cy5 tetrazine 20 (2.83 mg, 4.3 µmol) was added to a solution of norbornene 19 (0.94 mg, 2.38 µmol) in MeOH (4 mL). After stirring overnight at rt, the reaction mixture was concentrated in vacuo and purified by HPLC under neutral conditions (A: 50 mM NH4HCO3 in H2O; B: MeCN; 49% → 52%, A in […]
Biochemical Methods: General Experimental Details
Recombinant human GBA (rhGBA, imiglucerase, Cerezyme®) and GAA (rhGAA, alglucosidase alfa, Myozyme) were obtained from Sanofi Genzyme (Cambridge, MA, USA). HEK293T (CRL-3216) cell lines were purchased from ATCC (Manassas, VA, USA). Cell lines were […]
(1 picture or pasted object on this page, not shown here)

CCCCCCCCN1[C@@H]2[C@H](Cn3cc(CNC(=O)CCCCC[N+]4=C(/C=C/C=C/C=C5/N(C)c6ccccc6C5(C)C)C(C)(C)c5ccccc54)nn3)[C@@H](O)[C@H](O)[C@@H](O)[C@@H]21 (stereo partly drawn) [ABP 6]
ABP concentration with significant labeling of GBA ([1]; pH 5.2 with 0.2 % taurocholate and 0.1 % Triton, 30 min): 10 nM | ABP concentration with significant labeling of GBA ([1]; pH 5.8, 30 min): 1000 nM | ABP concentration at which in situ labeling of GBA2 is observed [2]: 100 nM
